Test results reported in ChEMBL document CHEMBL4266054, “Kinase Inhibitors for Treatment of Cancer and Inflammation” (ACS Med Chem Lett, 2018).

What was measured:
[1] = biological target: T1, Inhibitor of nuclear factor kappa-B kinase subunit epsilon (Homo sapiens) (UniProt Q14164); assay: Inhibition of IKK-epsilon (unknown origin) using fluorescein-labelled DRHDSGLDSMKDE as substrate after 1 hr by TR-FRET assay
T1 sequence (whole entry): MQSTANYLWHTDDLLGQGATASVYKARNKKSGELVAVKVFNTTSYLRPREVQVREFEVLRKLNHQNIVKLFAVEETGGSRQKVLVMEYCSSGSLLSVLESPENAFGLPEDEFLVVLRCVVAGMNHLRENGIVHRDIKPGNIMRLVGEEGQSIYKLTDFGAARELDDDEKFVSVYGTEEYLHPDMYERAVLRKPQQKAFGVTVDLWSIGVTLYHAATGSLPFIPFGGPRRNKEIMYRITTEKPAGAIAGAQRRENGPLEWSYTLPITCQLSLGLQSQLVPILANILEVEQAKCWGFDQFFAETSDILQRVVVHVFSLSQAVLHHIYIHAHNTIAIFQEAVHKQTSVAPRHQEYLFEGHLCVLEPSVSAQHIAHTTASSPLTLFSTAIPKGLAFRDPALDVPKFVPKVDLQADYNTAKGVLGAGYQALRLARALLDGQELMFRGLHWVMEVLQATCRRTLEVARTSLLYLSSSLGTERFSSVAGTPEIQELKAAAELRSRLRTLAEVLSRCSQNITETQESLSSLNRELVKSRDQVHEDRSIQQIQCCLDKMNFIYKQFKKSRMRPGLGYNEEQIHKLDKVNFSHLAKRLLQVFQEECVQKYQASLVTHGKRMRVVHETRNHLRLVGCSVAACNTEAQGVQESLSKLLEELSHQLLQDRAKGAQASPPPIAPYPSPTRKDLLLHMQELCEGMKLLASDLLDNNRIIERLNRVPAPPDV

[2] = biological target: T2, Serine/threonine-protein kinase TBK1 (Homo sapiens) (UniProt Q9UHD2); assay: Inhibition of TBK1 (unknown origin) using fluorescein-labelled DRHDSGLDSMKDE as substrate after 1 hr by TR-FRET assay
T2 sequence (whole entry): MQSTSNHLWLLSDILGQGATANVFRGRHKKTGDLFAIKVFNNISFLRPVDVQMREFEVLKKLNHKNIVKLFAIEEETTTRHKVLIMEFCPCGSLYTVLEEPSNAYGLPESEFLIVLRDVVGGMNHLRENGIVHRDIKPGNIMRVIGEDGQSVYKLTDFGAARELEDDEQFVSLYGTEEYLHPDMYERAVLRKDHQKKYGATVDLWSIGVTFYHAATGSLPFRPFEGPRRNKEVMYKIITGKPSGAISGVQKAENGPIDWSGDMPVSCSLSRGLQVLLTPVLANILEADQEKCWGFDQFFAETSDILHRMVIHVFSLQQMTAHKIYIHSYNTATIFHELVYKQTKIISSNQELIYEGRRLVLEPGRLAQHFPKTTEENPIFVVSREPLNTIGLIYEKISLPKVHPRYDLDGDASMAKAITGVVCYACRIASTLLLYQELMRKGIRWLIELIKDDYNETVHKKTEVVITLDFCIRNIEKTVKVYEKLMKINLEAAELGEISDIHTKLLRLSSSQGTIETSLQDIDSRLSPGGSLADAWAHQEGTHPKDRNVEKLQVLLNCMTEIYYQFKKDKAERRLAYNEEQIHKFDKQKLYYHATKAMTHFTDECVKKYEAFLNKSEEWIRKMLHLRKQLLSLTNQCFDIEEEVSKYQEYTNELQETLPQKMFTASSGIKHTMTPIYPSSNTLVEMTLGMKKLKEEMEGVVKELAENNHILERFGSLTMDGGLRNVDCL

[3] = biological target: Serine/threonine-protein kinase SIK2 (Homo sapiens) (UniProt Q9H0K1); assay: Inhibition of human SIK2 using AMARAASAAALARRR as substrate in presence of [gamma33P]ATP by kinase hotspot assay
[4] = Half life in Balb/c mouse at 0.5 mg/kg, iv by mass spectrometry; assay type: ADME, organism-based; details: in vivo
[5] = Volume of distribution in Balb/c mouse at 0.5 mg/kg, iv by mass spectrometry; assay type: ADME, organism-based; details: in vivo

Sequence of Serine/threonine-protein kinase SIK2 (Homo sapiens) (Q9H0K1 whole entry, looked up): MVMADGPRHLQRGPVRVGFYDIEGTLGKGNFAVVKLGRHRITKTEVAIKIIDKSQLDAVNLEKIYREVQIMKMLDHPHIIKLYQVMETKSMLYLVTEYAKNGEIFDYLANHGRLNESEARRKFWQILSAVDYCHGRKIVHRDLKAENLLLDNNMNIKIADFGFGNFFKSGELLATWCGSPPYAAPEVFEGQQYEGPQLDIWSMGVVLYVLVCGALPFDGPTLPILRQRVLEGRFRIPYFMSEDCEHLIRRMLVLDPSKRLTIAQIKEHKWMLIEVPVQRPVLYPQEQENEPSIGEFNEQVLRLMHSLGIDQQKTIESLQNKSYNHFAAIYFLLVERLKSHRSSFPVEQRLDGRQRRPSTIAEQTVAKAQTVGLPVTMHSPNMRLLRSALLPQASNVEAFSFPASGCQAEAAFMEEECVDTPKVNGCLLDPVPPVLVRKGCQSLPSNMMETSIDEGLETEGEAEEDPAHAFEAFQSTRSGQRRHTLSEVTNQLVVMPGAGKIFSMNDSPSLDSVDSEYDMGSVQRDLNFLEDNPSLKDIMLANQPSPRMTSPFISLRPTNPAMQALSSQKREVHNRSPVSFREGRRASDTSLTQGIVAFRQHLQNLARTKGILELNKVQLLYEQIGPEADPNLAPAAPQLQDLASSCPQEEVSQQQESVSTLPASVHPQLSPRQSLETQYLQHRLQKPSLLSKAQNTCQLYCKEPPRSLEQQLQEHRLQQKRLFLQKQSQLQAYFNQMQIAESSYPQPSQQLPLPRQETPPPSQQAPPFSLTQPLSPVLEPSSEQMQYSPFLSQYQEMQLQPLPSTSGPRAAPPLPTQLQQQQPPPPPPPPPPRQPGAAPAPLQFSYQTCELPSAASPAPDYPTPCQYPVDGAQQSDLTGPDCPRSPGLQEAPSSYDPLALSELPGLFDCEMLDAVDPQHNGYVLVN

| INH [1] [nM] | INH [2] [nM] | INH [3] [nM] | half-life [4] [min] | Vd [5] [L/kg] | Structure (SMILES) |
| --- | --- | --- | --- | --- | --- |
| 16 | 9 | 7 | – | – | CCN1CCN(Cc2ccc(Nc3nccc(-c4cnc(N5CC[C@H](F)C5)c(C#N)c4)n3)cn2)CC1 |
| 21 | 20 | – | – | – | CCN1CCN(Cc2ccc(Nc3nccc(-c4cnc(N5CC[C@@H](F)C5)c(C#N)c4)n3)cn2)CC1 |
| 24 | 17 | – | – | – | CN1CCN(Cc2ccc(Nc3nccc(-c4cnc(N5CC[C@H](F)C5)c(C#N)c4)n3)cn2)CC1 |
| < 15 | < 15 | – | – | – | N#Cc1cc(-c2ccnc(Nc3ccc(CN4CCNC(=O)C4)nc3)n2)cnc1N1CC[C@H](F)C1 |
| < 30 | < 30 | – | 30 | – | N#Cc1cc(-c2ccnc(Nc3ccc(NC(=O)CN4CCOCC4)nc3)n2)cnc1N1CC[C@H](F)C1 |
| < 15 | < 15 | – | 30 | 0.3 | N#Cc1cc(-c2ccnc(Nc3ccc(CN4CCOCC4)nc3)n2)cnc1N1CC[C@H](F)C1 |
